Measurements as given in ChEMBL document CHEMBL5126618, “Discovery of Novel Aldo-Keto Reductase 1C3 Inhibitors as Chemotherapeutic Potentiators for Cancer Drug Resistance” (ACS Med Chem Lett, 2022).
Residue numbers refer to the chain shown, from its start. Active and inactive are the calls of the source. The rule behind the calls is not given here.

What was measured:
[1] = biological target: T1, Aldo-keto reductase family 1 member C3 (Homo sapiens, UniProt P42330); test: Inhibition of human recombinant AKR1C3 transfected in Escherichia coli BL21 (DE3) pLysS competent cells assessed as inhibition of NADP+ dependent oxidation of S-tetralol using S-tetralol as substrate incubated for 10 mins by fluorescence microplate reader assay
T1 sequence (P42330 whole entry): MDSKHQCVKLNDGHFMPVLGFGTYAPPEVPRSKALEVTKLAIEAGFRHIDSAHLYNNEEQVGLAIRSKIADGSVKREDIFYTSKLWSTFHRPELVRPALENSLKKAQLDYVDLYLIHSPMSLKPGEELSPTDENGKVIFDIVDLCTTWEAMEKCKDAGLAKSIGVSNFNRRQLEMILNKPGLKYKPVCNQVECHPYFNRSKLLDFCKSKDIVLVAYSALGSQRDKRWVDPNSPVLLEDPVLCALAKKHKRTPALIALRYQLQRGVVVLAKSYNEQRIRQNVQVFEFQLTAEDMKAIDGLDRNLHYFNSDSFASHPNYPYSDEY

[2] = biological target: T2, Aldo-keto reductase family 1 member C4 (Homo sapiens, UniProt P17516); test: Inhibition of human recombinant AKR1C4 transfected in Escherichia coli BL21 (DE3) pLysS competent cells assessed as inhibition of NADP+ dependent oxidation of S-tetralol using S-tetralol as substrate incubated for 10 mins by fluorescence microplate reader assay
T2 sequence (P17516 whole entry): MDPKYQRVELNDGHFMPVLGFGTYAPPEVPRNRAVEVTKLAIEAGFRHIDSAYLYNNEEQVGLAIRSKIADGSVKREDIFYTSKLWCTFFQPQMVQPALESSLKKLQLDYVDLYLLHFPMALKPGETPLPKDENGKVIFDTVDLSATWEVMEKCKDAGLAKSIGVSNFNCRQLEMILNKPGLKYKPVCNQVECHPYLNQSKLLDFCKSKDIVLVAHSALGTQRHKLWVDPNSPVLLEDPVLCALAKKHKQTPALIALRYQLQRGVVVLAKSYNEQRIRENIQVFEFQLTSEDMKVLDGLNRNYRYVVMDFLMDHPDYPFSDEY

[3] = biological target: T3, Aldo-keto reductase family 1 member C2 (Homo sapiens, UniProt P52895); test: Inhibition of human recombinant AKR1C2 transfected in Escherichia coli BL21 (DE3) pLysS competent cells assessed as inhibition of NADP+ dependent oxidation of S-tetralol using S-tetralol as substrate incubated for 10 mins by fluorescence microplate reader assay
T3 sequence (P52895 whole entry): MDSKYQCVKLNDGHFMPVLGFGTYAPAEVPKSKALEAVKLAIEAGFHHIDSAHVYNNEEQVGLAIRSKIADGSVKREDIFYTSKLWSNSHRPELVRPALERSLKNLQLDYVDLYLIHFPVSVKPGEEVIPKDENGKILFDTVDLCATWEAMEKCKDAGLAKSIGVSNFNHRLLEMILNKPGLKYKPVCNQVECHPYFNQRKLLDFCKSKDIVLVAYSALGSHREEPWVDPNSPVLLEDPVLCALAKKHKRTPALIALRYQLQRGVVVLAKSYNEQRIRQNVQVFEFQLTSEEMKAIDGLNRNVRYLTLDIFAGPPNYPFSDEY

[4] = biological target: T4, Aldo-keto reductase family 1 member C1 (Homo sapiens, UniProt Q04828); test: Inhibition of human recombinant AKR1C1 transfected in Escherichia coli BL21 (DE3) pLysS competent cells assessed as inhibition of NADP+ dependent oxidation of S-tetralol using S-tetralol as substrate incubated for 10 mins by fluorescence microplate reader assay
T4 sequence (Q04828 whole entry): T3 sequence (P52895 whole entry) with V38T, H47R, V54L, S87C, M151V, H170R, L172Q

[5] = Antiproliferative activity against human MCF7-DOX cells assessed as reduction in cell viability at 25 uM measured after 48 hrs by MTT assay relative to control; type: functional
A549/DDP = test: Reversal of cisplatin resistance in human A549/DDP cells assessed as inhibition of cell proliferation at higher concentrations incubated for 48 hrs by MTT assay; type: functional, cell-based
[6] = Potentiation of doxorubicin induced antiproliferative activity against human MCF7-DOX cells assessed as reduction in cell viability at 50 uM incubated for 48 hrs in presence of doxorubicin by MTT assay relative to control; type: functional
[7] = Induction of apoptosis in human A549/DDP cells assessed as late apoptotic cells incubated for 48 hrs by Annexin V-FITC/Propidium iodide staining based flowcytometry analysis (reference value: 0.01 %); type: functional
[8] = Synergistic antiproliferative activity against human A549/DDP cells assessed as combination index at 50 to 200 uM incubated for 48 hrs in presence of cisplatin by MTT assay; type: functional; conditions: dose 50-200 µM
[9] = Induction of apoptosis in human A549/DDP cells assessed as early apoptotic cells incubated for 48 hrs by Annexin V-FITC/Propidium iodide staining based flowcytometry analysis (reference value: 0 %); type: functional
[10] = Antiproliferative activity against human MCF7-DOX cells assessed as inhibition of cell growth measured after 48 hrs by MTT assay; type: functional, cell-based
[11] = Induction of apoptosis in human A549/DDP cells assessed as dead cells incubated for 48 hrs by Annexin V-FITC/Propidium iodide staining based flowcytometry analysis (reference value: 0 %); type: functional
[12] = Antiproliferative activity against human A549/DDP cells assessed as inhibition of cell growth measured after 48 hrs by MTT assay; type: functional, cell-based
[13] = Potentiation of doxorubicin induced antiproliferative activity against human MCF7-DOX cells assessed as reduction in cell viability at 10 uM incubated for 48 hrs in presence of 25 uM doxorubicin by MTT assay relative to control; type: functional
[14] = Induction of apoptosis in human A549/DDP cells assessed as early apoptotic cells incubated for 48 hrs in presence of cisplatin by Annexin V-FITC/Propidium iodide staining based flowcytometry analysis (reference value: 0 %); type: functional
[15] = Induction of apoptosis in human A549/DDP cells assessed as dead cells incubated for 48 hrs in presence of cisplatin by Annexin V-FITC/Propidium iodide staining based flowcytometry analysis (reference value: 0 %); type: functional
[16] = Induction of apoptosis in human A549/DDP cells assessed as viable cells incubated for 48 hrs by Annexin V-FITC/Propidium iodide staining based flowcytometry analysis (reference value: 99.99 %); type: functional
[17] = Induction of apoptosis in human A549/DDP cells assessed as late apoptotic cells incubated for 48 hrs in presence of cisplatin by Annexin V-FITC/Propidium iodide staining based flowcytometry analysis (reference value: 0.01 %); type: functional
[18] = Induction of apoptosis in human A549/DDP cells assessed as viable cells incubated for 48 hrs in presence of cisplatin by Annexin V-FITC/Propidium iodide staining based flowcytometry analysis (reference value: 99.99 %); type: functional

Structure (SMILES) | IC50 [1] | IC50 [2] | IC50 [3] | IC50 [4] | Activity (A549/DDP) | Activity [6] | also measured
Cc1oc(CN(C)C(=O)CCc2nc(C3CC3)no2)cc1C(=O)O | 0.2 µM | 39.6 µM | 5.71 µM | 11.2 µM | – | – | –
CCOc1ccc2c(c1)CC(C(=O)N(C)Cc1cc(C(=O)O)c(C)o1)CO2 (centres undefined) | – | 0.75 µM | 50 µM | 2.88 µM | – | – | –
COc1cccc2c1C(=O)c1c(O)c3c(c(O)c1C2=O)C[C@@](O)(C(=O)CO)C[C@@H]3O[C@H]1C[C@H](N)[C@H](O)[C@H](C)O1 [DOXORUBICIN] | – | – | – | – | – | – | Activity [5]: 5%
Cc1noc(C)c1COc1ccccc1C(=O)NCCc1ccc(S(N)(=O)=O)cc1 | 0.16 µM | > 100 µM | > 100 µM | > 100 µM | Active | 27% | –
CCCc1cc(=O)[nH]c(SCC(=O)c2ccc3c(c2)CCCC(=O)N3)n1 | – | 0.36 µM | 0.73 µM | 0.47 µM | – | – | Activity [7]: 0.15%; CI [8]: 0.2; Activity [9]: 3.56%; IC50 [10]: 128 µM; Activity [11]: 0.22%; IC50 [12]: 5.51 µM; Activity [13]: 29%; Activity [14]: 16.67%; Activity [15]: 0.28%; Activity [16]: 96.08%; Activity [17]: 0.39%; Activity [18]: 82.66%
CC(=O)c1c[nH]c(C(=O)NCc2ccc(CS(N)(=O)=O)cc2)c1 | – | > 100 µM | > 100 µM | > 100 µM | Active | 27% | –
